Data from patent publication US7632524B2, “Pharmaceutical preparations for the treatment of itch, nausea, hyperalgesia and the complications of opioid agonists” (priority 2002, dated 2009).

Legend:
Format in all cases: in vivo
[1] = tested on: opioid-induced itch; test: Ferret model of opioid (morphine-6-glucuronide)-induced itch (licking)
Description: FIG. 2: FIG. 2. Prevention of opioid-induced itch by Zangrado. Itch, as measured by the number of licking episodes per hour, was induced by parenteral administration of the opioid narcotic, morphine-6-glucuronide (15 mg/kg) ip.
Zangrado (CGO 110) contains active components and is effective in the treatment of itch.

[2] = tested on: opioid-induced emesis; test: Ferret model of opioid (morphine-6-glucuronide)-induced emesis
Description: FIG. 1. Prevention of opioid-induced emesis by the Croton speceis extract, (Zangrado®). Emesis as measured by the number of vomiting and retching episodes per hour was induced by parenteral administration of the opioid narcotic, morphine-6-glucuronide (15 mg/kg) ip.
Sangre de Grado has also been used ethnomedically for the treatment of a variety of intestinal complications including diarrhea, ulcerations, cancer and emesis. Using a well-established ferret model of post-operative complications of emesis induced by morphine, Zangrado (CGO 110) was administered intraperitoneally (3 mg/kg) to ferrets 15 minutes prior to the administration of morphine-6-glucuronide (M6G), known to promote itching, retching and vomiting. The animals were monitored for sixty minutes.
As shown in FIG. 1 the subcutaneous injection of 0.05 mg/kg M6G caused a significant number of vomiting (2.2±0.4) and retching (10±1.2) incidences in the control group. In those animals treated with Zangrado (CGO 110), the number of these episodes was virtually abolished (vomiting 0.6±0.3; retching 2.2±0.7, P<0.05). Given the utility of this model to predict treatments for nausea and vomiting, Zangrado (CGO 110) contains active components and is effective in the treatment of emesis.

[3] = Body temperature and sedation at anti-emetic doses; details: CGO 110 3 mg/kg
Excerpt: As such, Zangrado represents a significant improvement in the treatment of emesis and itch.

For Cc1c(C(=O)NN2CCCCC2)nn(-c2ccc(Cl)cc2Cl)c1-c1ccc(I)cc1 [AM251], the “effect on licking in naïve animals” value [1] was “promotes licking” and the “effect on emesis in naïve animals” value [2] was “promotes emesis”.
In the case of Cc1c(C(=O)c2cccc3ccccc23)c2cccc3c2n1[C@H](CN1CCOCC1)CO3 [WIN 55, 212-2], the “effect on body temperature” value [3] is reported as “produces a drop in body temperature” and the sedation [3] is reported as “significant sedation”.
